# Assay results: patent US11548925B2, “CACNA1H-derived tumor antigen polypeptide and use thereof” (Genoimmune Therapeutics Co., Ltd., priority 2016, dated 2023)
# How the values were obtained:
# T2 cells = assay: LDH release assay, killing of peptide-loaded T2 target cells by CD8+ T cells; format: cell-based, human; conditions: for Killing efficiency: 4 h
# Description: The cells cultured in Example 3 were co-cultured with T2 cells loaded with the mutant peptides of the present invention or the wild-type peptide or without a peptide. A maximum release well, a volume correction well, a medium control well, a spontaneous release well and control wells for example at different effector-to-target ratios (ratios of T cells to T2 cells) were set in this experiment. Three replicate wells were set for each group. After 4 h, 50 μl of the co-culture supernatant was taken out and added to 50 μl of LDH substrate mixture to catalyze the reaction of LDH substrate. Finally, the plates were read at a wavelength of 490 nm, with a reference wavelength of 680 nm, and the killing activity against target cells T2 was calculated based on the control wells.
# The formula for calculating the killing activity is: Killing efficiency (%)=(test well−spontaneous release of effector cells−spontaneous release of target cells+medium well)/(maximum release of target cells−volume correction well−spontaneous release of target cells+medium well)×100%
# [1] = test system: H2087-TLISSLMPI (SEQ ID NO: 2) subcutaneous tumor; assay: Peptide + Freund's adjuvant vaccine in H2087-[…] subcutaneous tumor model; format: in vivo, NOD/SCID mice; conditions: peptide 100 μg/mouse + Freund's adjuvant s.c., 4 immunizations; vs adjuvant alone and wild-type peptide
# Description: (§1) 600-900 ml of anticoagulated peripheral blood was collected from healthy volunteers for isolating peripheral blood mononuclear cells (PBMCs) via Ficoll. Cells were collected for use. 2×10^7 PBMCs per 0.5 ml was intraperitoneally injected into each of 300 NOD SCID mice without immune leakage to perform human immune reconstitution in NOD SCID mice. After 4 weeks, the mice were selected to be inoculated with the human lung cancer cell line.
# The human non-small cell lung adenocarcinoma cell line H2087-[…] (SEQ ID NO: 2) as established in Example 7 was cultured in DMEM medium containing 10% fetal bovine serum, 100 U/mL penicillin and 100 U/mL streptomycin in an incubator at 37° C., 5% CO2. H2087-[…] (SEQ ID NO: 2) tumor cells were collected, centrifuged at 1500 rpm for 5 min, and washed 3 times with sterile physiological saline. The tumor cells were diluted appropriately. […] The long diameter a and the short diameter b of the tumor were measured with a vernier caliper every 2-3 days and the size of the tumor was calculated as a*b*b/2. The mice and tumors were weighed and recorded every day. […] The tumor volume and the survival rate of mice were recorded every 2 days.
# The H2087-[…] […] The longest diameter (a) and the shortest diameter (b) of a tumor were measured with a vernier caliper every 2 days. Tumor volume was calculated as: ½×length×width^2. […]
# [2] = test system: H2087-TLISSLMPI (SEQ ID NO: 2) subcutaneous tumor; assay: DC vaccine infected with recombinant lentivirus containing peptide gene in H2087-[…] tumor model; format: in vivo, NOD/SCID mice; conditions: DC infected with lentivirus carrying peptide gene, 2 injections
# Description: The following DNA sequences were synthesized: “[…]” (SEQ ID NO: 8), encoding the wild-type peptide […] (SEQ ID NO: 1); “[…]” (SEQ ID NO: 9), encoding the mutant peptide […] (SEQ ID NO: 2); “[…]” (SEQ ID NO: 10), encoding the SEQ ID NO: 2 […]'s variant peptide […] (SEQ ID NO: 3); “[…]” (SEQ ID NO: 11), encoding the SEQ ID NO: 2 […]'s variant peptide […] (SEQ ID NO: 4); “[…]” (SEQ ID NO: 12), encoding the SEQ ID NO: 2 […]'s variant peptide […] (SEQ ID NO: 5); “[…]” (SEQ ID NO: 13), encoding the SEQ ID NO: 2 […]'s variant peptide […] (SEQ ID NO: 6); and “[…]” (SEQ ID NO: 14), encoding the SEQ ID NO: 2_[…]'s variant peptide […] (SEQ ID NO: 7). The wild-type peptide […] (SEQ ID NO: 1), the mutant peptide […] (SEQ ID NO: 2) and the mutant peptide SEQ ID NO: 2 […]'s variant peptides were constructed into the lentiviral vector pHBLV-Puro, respectively, to name as pHBLV-Puro-[…] (SEQ ID NO: 1), pHBLV-Puro-[…] (SEQ ID NO: 2), pHBLV-Puro-[…] (SEQ ID NO: 3), pHBLV-Puro-[…] (SEQ ID NO: 4), pHBLV-Puro-[…] (SEQ ID NO: 5), pHBLV-Puro-[…] (SEQ ID NO: 6) and pHBLV-Puro-[…] (SEQ ID NO: 7), respectively. The seven lentiviral constructs were co-transfected into 293T cells with helper plasmids pSPAX2 and pMD2G for packaging, and lentiviruses of the wild-type peptide […] (SEQ ID NO: 1), the mutant peptide […] (SEQ ID NO: 2) and the mutant peptide's variant peptides were obtained.
# as §1, with “After 4 weeks, the mice were selected to be inoculated with the human lung cancer cell line.” left out
# The human non-small cell lung adenocarcinoma cell line H2087-[…] […] The long diameter a and the short diameter b of the tumor were measured with a vernier caliper every 2-3 days and the size of the tumor was calculated as a*b*b/2. The mice and tumors were weighed and recorded every day. […] The tumor volume and the survival rate of mice were recorded every 2 days. […]
sequence,measurement,setting,value
"TLISSLMPI [tumor antigen peptide from CACNA1H mutation, position 1428 arginine to methionine]",Killing efficiency,"T2 cells; effector-to-target ratio 1:1, target T2 loaded with TLISSLMPI",7.96%
same,Killing efficiency,"T2 cells; effector-to-target ratio 1:1, target T2 loaded with wild-type TLISSLRPI",2.23%
same,Killing efficiency,"T2 cells; effector-to-target ratio 10:1, target T2 loaded with TLISSLMPI",38.89%
same,Killing efficiency,"T2 cells; effector-to-target ratio 10:1, target T2 loaded with wild-type TLISSLRPI",4.23%
same,Specific killing of target cells (in words),T2 cells; effector-to-target ratio of 1:1 or 1:10 as printed,"capable of killing T2 cells presenting the mutant peptide, but not the T2 cells presenting a wild-type peptide"
same,Survival period of mice,[1],prolonged the survival period of mice
same,Tumor growth,[1],effectively inhibited tumor growth
same,Tumor-suppressing effect,[2],significant tumor-suppressing effects
same,Survival period of mice,[2]; vs wild-type peptide group,prolonged the survival period of mice
